Measurements: publication PMC9822940, “Antiplasmodial activity, structure–activity relationship and studies on the action of novel benzimidazole derivatives” (Scientific Reports, 2023)

Experiments:
[1] = Cytotoxicity on epithelial Vero cell cultures; assay type: cell-based; settings: African green monkey, epithelial Vero cells
Procedure: (§1) In vitro activity of BZ. All BZ derivatives were tested at 10 μM against the HB3 strain of Pf, and for those compounds with a percentage of growth inhibition (% GI) higher than 50%, the IC50 values were determined. In addition, their cytotoxicity on epithelial Vero cell cultures was evaluated to calculate their selectivity indexes (SI), Table 1. An index of 10 or above is expected for a lead compound.

[2] = system: mitochondria of P. falciparum parasites; experiment: Mitochondrial membrane potential measurement; assay type: cell-based, Plasmodium falciparum; settings: 1 µM
Procedure: Changes in mitochondrial membrane potential, another common hallmark of programed cell death, were analyzed in the samples that had promising activities toward P. falciparum cultures. The results of adding 1 µM of each compound can be seen in Fig. 5. […] This could probably be explained by the presence of the unsubstituted picolinamide fragment, therefore more polar and less soluble in the membrane, making it harder or slower to permeate into the erythrocyte and then into the parasite, with respect to the other three.  Figure 5 Changes to mitochondrial membrane potential caused by antiplasmodial compounds. Fluorometry was used to measure the effects on the mitochondria of P. falciparum parasites caused by treatment with compounds that show activity against their growth in culture. A membrane disruptor (CCCP) was added as a positive control and untreated cultures were used as the negative one. All compounds were tested at 1 µM in triplicates, n = 3. (a) BZ 1, (b) BZ 5, (c) BZ 16, (d) BZ 26 and (e) BZ 33. *p < 0.05, **p < 0.01, ***p < 0.005. The membrane potential was measured in a flow cytometer after staining P. falciparum cultures with the DiOC6(3) dye at 10 nM (Thermo Fisher, Waltham, MA, USA). Samples were incubated for 45 min at 37 °C in the dark. Following incubation, cells were washed and resuspended using 200 µL of phosphate-buffered saline (PBS) and analyzed immediately after. The mitochondrial membrane disrupter, CCCP (50 µM), incubated for 1 h, was used as a positive control. The fluorescence intensity of stained cells was calculated using FCS Express 4 (De Novo Software, Glendale, CA, USA). As negative control, uninfected red blood cells were used and their signal was subtracted from that of the infected red blood cells.

P. falciparum HB3 strain = experiment: Antiplasmodial activity against P. falciparum HB3 strain in culture; assay type: cell-based, Plasmodium falciparum; settings: for IC50 / inhibition at 10 µM: Plasmodium falciparum; for IC50: HB3 strain (chloroquine-sensitive), read-out: IC50; for inhibition at 10 µM: HB3 strain, read-out: GI (growth inhibition percentage); for SI (selectivity index): Vero CC50 versus HB3 IC50
Procedure: as §1
(§2) The chloroquine-sensitive […] and chloroquine-resistance 7G8 strain […] of P. falciparum were used throughout. Infected erythrocytes were kept in culture using the protocol established by Haynes et al.[44], basically utilizing human O^+ erythrocytes kept in an RPMI medium supplemented with glutamine and 10% human serum incubated in an atmosphere of 90% N2, 5% O2 and 5% CO2.

[3] = system: P. falciparum-infected cultures; experiment: Intracellular reactive oxygen species (ROS) production in P. falciparum; assay type: cell-based, Plasmodium falciparum; settings: 1 µM; 0.5, 6 and 9 h
Procedure: Also, the intracellular production of oxygen reactive species (ROS) was monitored for the same antiplasmodial compounds. The level of ROS production was compared between the samples and that of the untreated parasites. […] This would point to the conformation of such molecules targeting a specific molecule or process of the parasite.  Figure 4 Effect of selected benzimidazole derivatives on ROS production. Five potent compounds were incubated with P. falciparum-infected cultures and the production of reactive oxygen species was measured through fluorometry at 0.5, 6 and 9 h after their addition at 1 µM. As positive control, a sample containing hydrogen peroxide at 200 μM was added. Samples were measured in triplicates. One-way ANOVA with Turkey´s comparison was used to measure significance with respect to the untreated control at each different time point. n = 2. (a) BZ 1, (b) BZ 5, (c) BZ 16, (d) BZ 26 and (e) BZ 33. *p < 0.05, **p < 0.01, ***p < 0.005. Intracellular ROS formation was measured in a fluorimeter using the CM-H2DCFDA reactive dye from Molecular Probes® (Eugene OR, USA). Hydrogen peroxide was used as a positive control at a final concentration of 200 µM. The level of ROS present was inferred through the amount of oxidized DCF[45].

[4] = system: plasma membrane of parasite culture / erythrocytes; experiment: Propidium iodide incorporation assay (membrane integrity); assay type: cell-based, Plasmodium falciparum; settings: 3 h incubation, fluorometry
Procedure: The integrity of the plasma membrane under the action of certain antiplasmodial compounds was assessed through the use of two methodologies. First, the absorption of propidium iodide, to which intact membranes are impermeable, was measured. Second, the presence of heme in the culture media, which indicates a leakage of the contents of the erythrocyte or its complete lysis (hemolysis), was analyzed.
Figure 3 Membrane integrity tests. BZ 1, 5, 16, 26 and 33 were tested in triplicates in two independent experiments. (a) Incorporation of propidium iodide (PI) was analyzed through fluorometry after 3 h incubation with the compounds. (b) Hemolysis was measured by light absorbance 24 h after exposure to the compounds. One-way ANOVA with Turkey´s comparison was used for analysis of significance. ****p < 0.001.
Manufacturer’s instructions (BD PharmingenTM) were followed. Briefly, 200 µL of parasite culture at 2% parasitemia or uninfected erythrocytes, at 2% hematocrit, were incubated with each compound for 3 h at 37 °C. Untreated samples were cultured in the same plate. After incubation, 2 µL of Propidium Iodide was added and incubated for 15 min at RT while protected from light. Fluorescence was read in a fluorometer at excitation and emission wavelengths of 485/20 and 645/40 nm, respectively.

[5] = system: 7G8 P. falciparum parasites; experiment: Antiplasmodial activity against chloroquine-resistant 7G8 P. falciparum; assay type: cell-based, Plasmodium falciparum; settings: for IC50: Plasmodium falciparum, 7G8 strain (chloroquine-resistant), read-out: 7G8 Pf IC50; for SI (selectivity index): Vero CC50 versus 7G8 IC50
Source text: (§3) The mechanism used by Pf to prevent intoxication with free heme once hemoglobin is degraded is to form hemozoin crystals that capture heme. Mefloquine and other common antimalarials interfere with this pathway, resulting in the death of the parasite.
as §2

[6] = system: hemozoin biocrystallization in P. falciparum; experiment: Hemozoin biocrystallization / beta-hemozoin formation; assay type: cell-based, Plasmodium falciparum; settings: Pf cultures, 36 h
Source text: as §3

IC50 (P. falciparum HB3 strain) [µM]	melting point [°C]	Compound	CC50 [1] [µM]	Change in mitochondrial membrane potential versus untreated control [2]	inhibition at 10 µM (P. falciparum HB3 strain) [%]	SI (selectivity index) (P. falciparum HB3 strain)	Intracellular ROS production versus untreated parasites [3]	Membrane integrity: incorporation of propidium iodide [4]	IC50 [5] [µM]	SI (selectivity index) [5]	Interference with hemozoin biocrystallization [6]
3.3	–	COc1ccc2[nH]c(NC(=O)c3ccc(C)cn3)nc2c1 [BZ 26, N-(5-Methoxy-1H-benzimidazol-2-yl)-5-methylpicolinamide]	11.1	shows an effect from t = 6 h onward	93.5	3.4	no significant difference at any point	some permeation in the membrane, although not significant	–	–	–
1.5	256	Cc1ccc(C(=O)Nc2nc3cc(C)ccc3[nH]2)nc1 [BZ 5, 5-Methyl-N-(5-methyl-1H-benzimidazol-2-yl)picolinamide]	4.5	–	100	–	no significant difference at any point	some permeation in the membrane, although not significant	–	–	–
2.4	–	Cc1ccc(C(=O)Nc2nc3cc(Cl)ccc3[nH]2)nc1 [BZ 16, N-(5-Chloro-1H-benzimidazol-2-yl)-5-methylpicolinamide]	7.2	–	85.6	3.0	no significant difference at any point	some permeation in the membrane, although not significant	2.6	2.7	small level of disruption
0.85	–	Cc1cc2nc(NC(=O)c3ccccn3)[nH]c2cc1C [BZ 33, N-(5,6-Dimethyl-1H-benzimidazol-2-yl)picolinamide]	13.2	do not show a difference with the untreated control up to t = 6 h	100	–	early significant decrease in the natural level of ROS	best in keeping the membrane well preserved	–	–	–

Compound	IC50 (P. falciparum HB3 strain) [µM]	melting point [°C]	CC50 [1] [µM]	Change in mitochondrial membrane potential versus untreated control [2]	inhibition at 10 µM (P. falciparum HB3 strain) [%]	SI (selectivity index) (P. falciparum HB3 strain)	Intracellular ROS production versus untreated parasites [3]	Membrane integrity: incorporation of propidium iodide [4]	IC50 [5] [µM]	SI (selectivity index) [5]	Interference with hemozoin biocrystallization [6]
Cc1ccc2[nH]c(NC(=O)c3ccccn3)nc2c1 [BZ 1, N-(5-methyl-1H-benzimidazol-2-yl)picolinamide]	0.98	–	14.8	do not show a difference with the untreated control up to t = 6 h	93.5	–	early significant decrease in the natural level of ROS	best in keeping the membrane well preserved	0.95	15.6	–
